Experimental findings from US7964591B2, “Pyridazine derivatives and their use as therapeutic agents” (Novartis Pharma AG, priority 2003, dated 2011) are described below.

This data set addresses T1, stearoyl-CoA desaturase (SCD) (Mus musculus, UniProt P13516).
T1 sequence (P13516 1-355): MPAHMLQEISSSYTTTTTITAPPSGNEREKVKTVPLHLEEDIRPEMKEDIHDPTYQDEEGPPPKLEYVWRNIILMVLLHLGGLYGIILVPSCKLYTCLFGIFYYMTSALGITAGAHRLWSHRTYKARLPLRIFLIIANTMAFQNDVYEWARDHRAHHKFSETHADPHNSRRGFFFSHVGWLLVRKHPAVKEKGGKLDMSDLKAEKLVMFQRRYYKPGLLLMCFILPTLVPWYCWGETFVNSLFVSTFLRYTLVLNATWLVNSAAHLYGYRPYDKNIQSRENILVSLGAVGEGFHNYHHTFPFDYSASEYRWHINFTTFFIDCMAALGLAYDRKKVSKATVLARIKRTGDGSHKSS
Put plainly: Stearoyl-CoA desaturase inhibition using mouse liver microsomes (HTS microsomal assay, IC50 follow-up). The conditions noted are these: % SCD enzyme activity remaining at 10 μM test compound. In general terms: Liver microsomes are a subcellular fraction often used to study metabolism.
Experimental: Livers are immediately rinsed with cold 0.9% NaCl solution, weighed and minced with scissors. All procedures are performed at 4° C. unless specified otherwise. Livers are homogenized in a solution (1:3 w/v) containing 0.25 M sucrose, 62 mM potassium phosphate buffer (pH 7.0), 0.15 M KCl, 1.5 mM N-acetyleysteine, 5 mM MgCl2, and 0.1 mM EDTA using 4 strokes of a Potter-Elvehjem tissue homogenizer. The homogenate is centrifuged at 10,400×g for 20 min to eliminate mitochondria and cellular debris. The supernatant is filtered through a 3-layer cheesecloth and centrifuged at 105,000×g for 60 min. The microsomal pellet is gently resuspended in the same homogenization solution with a small glass/teflon homogenizer and stored at −70° C. The absence of mitochondrial contamination is enzymatically assessed. The protein concentration is measured using bovine serum albumin as the standard.
The tubes are vortexed vigorously and after 15 min incubation in a shaking water bath (37° C.), the reactions are stopped and fatty acids are analyzed.
Fatty acids are analyzed as follows: The reaction mixture is saponified with 10% KOH to obtain free fatty acids which are further methylated using BF3 in methanol. […] Fatty acid methyl esters are separated isocratically with acetonitrile/water (95:5 v:v) at a flow rate of 1 mL/min and are identified by comparison with authentic standards.
The compounds are analyzed with an HTS microsomal assay. The activities are defined in terms of % SCD enzyme activity remaining at the selected concentration (e.g., 10 μM) of the test compounds.
For the compound `CC(C)CCNC(=O)c1ccc(N2CCN(C(=O)c3cnn(C)c3C(F)(F)F)CC2)nn1` [6-[4-(1-METHYL-5-TRIFLUOROMETHYL-1H-PYRAZOLE-4-CARBONYL)PIPERAZIN-1-YL]-PYRIDAZINE-3-CARBOXYLIC ACID (3-METHYLBUTYL)AMIDE], the “Mouse Microsome 10% remaining @ 10 μM” value was determined as 15%.
Next, `COc1ccc(CCNC(=O)c2ccc(N3CCN(C(=O)c4ccccc4C(F)(F)F)CC3)nn2)cc1` [6-[4-(2-TRIFLUOROMETHYLBENZOYL)PIPERAZIN-1-YL]PYRIDAZINE-3-CARBOXYLIC ACID [2-(4-METHOXYPHENYL)ETHYL]AMIDE]: 7%; `O=C(NCCC1CC1)c1ccc(N2CCN(C(=O)CC(O)(C(F)(F)F)C(F)(F)F)CC2)nn1` [6-[4-(4,4,4-TRIFLUORO-3-HYDROXY-3-TRIFLUOROMETHYLBUTYRYL)PIPERAZIN-1-YL]PYRIDAZINE-3-CARBOXYLIC ACID (2-CYCLOPROPYLETHYL)AMIDE]: 8%.
To `O=C(NCC1CC1)c1ccc(N2CCN(C(=O)c3ccccc3C(F)(F)F)CC2)nn1` [6-[4-(2-TRIFLUOROMETHYLBENZOYL)PIPERAZIN-1-YL]PYRIDAZINE-3-CARBOXYLIC ACID CYCLOPROPYLMETHYLAMIDE] belongs 49%; to `O=C(NCc1ccc(F)cc1)Nc1ccc(N2CCN(C(=O)c3ccccc3C(F)(F)F)CC2)nn1` [1-(4-FLUOROBENZYL)-3-{6-[4-(2-TRIFLUOROMETHYLBENZOYL)PIPERAZIN-1-YL]-PYRIDAZIN-3-YL}UREA], 6%.
Next, `O=C(NCCC1CC1)c1ccc(N2CCN(C(=O)c3ccoc3C(F)(F)F)CC2)nn1` [6-[4-(2-TRIFLUOROMETHYLFURAN-3-CARBONYL)PIPERAZIN-1-YL]PYRIDAZINE-3-CARBOXYLIC ACID (2-CYCLOPROPYLETHYL)AMIDE]: 7%; `CC(NC(=O)Nc1ccc(N2CCN(C(=O)c3ccccc3C(F)(F)F)CC2)nn1)c1ccc(F)cc1` (stereo not shown) [1-[1-(4-Fluorophenyl)ethyl]-3-{6-[4-(2-trifluoromethylbenzoyl)piperazin-1-yl]pyridazin-3-yl}urea]: 45%.
For the compound `O=C(NCCC1CC1)c1ccc(N2CCN(Cc3ccc(F)cc3Cl)CC2)nn1` [6-[4-(2-CHLORO-4-FLUOROBENZYL)PIPERAZIN-1-YL]PYRIDAZINE-3-CARBOXYLIC ACID (2-CYCLOPROPYLETHYL)AMIDE], the “Mouse Microsome 10% remaining @ 10 μM” value amounted to 11%.
Next, `O=C(NCCC1CC1)c1ccc(N2CCN(C(=O)C3CCCCC3)CC2)nn1` [6-(4-CYCLOHEXANECARBONYLPIPERAZIN-1-YL)PYRIDAZINE-3-CARBOXYLIC ACID (2-CYCLOPROPYLETHYL)AMIDE]: 22%; `O=C(NCCC1CC1)c1ccc(N2CCN(Cc3ccccc3C(F)(F)F)CC2)nn1` [6-[4-(2-TRIFLUOROMETHYLBENZYL)PIPERAZIN-1-YL]PYRIDAZINE-3-CARBOXYLIC ACID (2-CYCLOPROPYLETHYL)AMIDE]: 12%; `CCCCNC(=O)Nc1ccc(N2CCN(C(=O)c3ccccc3C(F)(F)F)CC2)nn1` [1-BUTYL-3-{6-[4-(2-TRIFLUOROMETHYLBENZOYL)PIPERAZIN-1-YL]PYRIDAZIN-3-YL}UREA]: 13%.
Next, `CC(C)CCNC(=O)c1ccc(N2CCN(C(=O)OC(C)(C)C)CC2)nn1` [4-[6-(3-METHYLBUTYLCARAMOYL)PYRIDAZIN-3-YL]PIPERAZINE-1-CARBOXYLIC ACID T-BUTYL ESTER]: 11%.
Next, `O=C(NCCCC1CC1)c1ccc(N2CCN(Cc3cc(F)ccc3C(F)(F)F)CC2)nn1` [6-[4-(5-FLUORO-2-TRIFLUOROMETHYLBENZYL)PIPERAZIN-1-YL]PYRIDAZINE-3-CARBOXYLIC ACID (3-CYCLOPROPYLPROPYL)AMIDE]: 8%; `O=C(NCCC1CC1)c1ccc(N2CCN(Cc3cc(Cl)ccc3Cl)CC2)nn1` [6-[4-(2,5-DICHLOROBENZYL)PIPERAZIN-1-YL]PYRIDAZINE-3-CARBOXYLIC ACID (2-CYCLOPROPYLETHYL)AMIDE]: 8%; `O=C(NCCC1CC1)c1ccc(N2CCN(C(=O)c3ccccn3)CC2)nn1` [6-[4-(PYRIDINE-2-CARBONYL)PIPERAZIN-1-YL]PYRIDAZINE-3-CARBOXYLIC ACID (2-CYCLOPROPYLETHYL)AMIDE]: 94%.
As to `O=C(NCCC1CC1)c1ccc(N2CCN(C(=O)Cc3ccccc3C(F)(F)F)CC2)nn1` [6-{4-[2-(2-TRIFLUOROMETHYLPHENYL)ACETYL]PIPERAZIN-1-YL}PYRIDAZINE-3-CARBOXYLIC ACID (2-CYCLOPROPYLETHYL)AMIDE], the “Mouse Microsome 10% remaining @ 10 μM” value came to 10%.
To `CC(C(=O)N1CCN(c2ccc(C(=O)NCCC3CC3)nn2)CC1)(C(F)(F)F)C(F)(F)F` [6-[4-(3,3,3-TRIFLUORO-2-METHYL-2-TRIFLUOROMETHYLPROPIONYL)PIPERAZIN-1-YL]PYRIDAZINE-3-CARBOXYLIC ACID (2-CYCLOPROPYLETHYL)AMIDE] belongs 8%.
To `CCCCCNC(=O)Nc1ccc(N2CCN(C(=O)c3ccccc3C(F)(F)F)CC2)nn1` [1-PENTYL-3-{6-[4-(2-TRIFLUOROMETHYLBENZOYL)PIPERAZIN-1-YL]PYRIDAZIN-3-YL}UREA] belongs 6%; to `CCOC(=O)CCNC(=O)Nc1ccc(N2CCN(C(=O)c3ccccc3C(F)(F)F)CC2)nn1` [3-(3-{6-[4-(2-TRIFLUOROMETHYLBENZOYL)PIPERAZIN-1-YL]-PYRIDAZIN-3-YL}-UREIDO)PROPIONIC ACID ETHYL ESTER], 18%.
To `O=C(NCCC1CC1)c1ccc(N2CCN(C(=O)C3(O)CC3)CC2)nn1` [6-[4-(1-HYDROXYCYCLOPROPANECARBONYL)PIPERAZIN-1-YL]PYRIDAZINE-3-CARBOXYLIC ACID (2-CYCLOPROPYLETHYL)AMIDE] belongs 73%.
For `CC(C)CCNC(=O)c1ccc(N2CCN(C(=O)CCC(F)(F)F)CC2)nn1` [6-[4-(4,4,4-TRIFLUOROBUTYRYL)PIPERAZIN-1-YL]PYRIDAZINE-3-CARBOXYLIC ACID (3-METHYLBUTYL)AMIDE], the “Mouse Microsome 10% remaining @ 10 μM” value is 42%.
As to `CC(c1ccccc1C(F)(F)F)N1CCN(c2ccc(C(=O)NCCC3CC3)nn2)CC1.Cl` (stereo not shown) [6-{4-[1-(2-TRIFLUOROMETHYLPHENYL)ETHYL]PIPERAZIN-1-YL}-PYRIDAZINE-3-CARBOXYLIC ACID (2-CYCLOPROPYLETHYL)AMIDE HYDROCHLORIDE], the “Mouse Microsome 10% remaining @ 10 μM” value is given as 24%.
To `CC(C)CCNC(=O)c1ccc(N2CCN(C(=O)C(C)CC(F)(F)F)CC2)nn1` (stereo not shown) [6-[4-(4,4,4-TRIFLUORO-2-METHYLBUTYRYL)PIPERAZIN-1-YL]PYRIDAZINE-3-CARBOXYLIC ACID (3-METHYLBUTYL)AMIDE] belongs 19%; to `CCC(CC)C(=O)N1CCN(c2ccc(C(=O)NCCC3CC3)nn2)CC1` [6-[4-(2-ETHYLBUTYRYL)PIPERAZIN-1-YL]PYRIDAZINE-3-CARBOXYLIC ACID (2-CYCLOPROPYLETHYL)AMIDE], 36%; to `O=C(NCc1ccccc1)Nc1ccc(N2CCN(C(=O)c3ccccc3C(F)(F)F)CC2)nn1` [1-BENZYL-3-{6-[4-(2-TRIFLUOROMETHYLBENZOYL)PIPERAZIN-1-YL]PYRIDAZIN-3-YL}UREA], 8%.
